Experimental data: patent publication US3975529A, “Diebenzo(B,E)thiepines” (Roussel-UCLAF, priority 1974, dated 1976)
Where a name gives a salt, the structure may show the parent alone. Read-outs that look alike come from different tables or passages of the source.

Experiments:
[1] = tested on: trembling and peripherical cholinergic manifestations provoked by tremorine; experiment: Antitremorine activity (ED50); type: in vivo; conditions: mice; for ED50: Mus musculus, ip, i.p. aqueous solution, tremorine 20 mg/kg i.p. half an hour after
Protocol: The antagonism of the test compounds to the trembling and peripherical cholinergic manifestations provoked by tremorine [Everett et al, Science, Vol. 124 (1956), p. 79] was studied on mice.
The product of Example 1 in aqueous solution was intraperitoneally administered at doses of 0.5, 1,2 and 5 mg/kg to groups of 10 mice and the mice received an intraperitoneal injection of 20 mg/kg of tremorine half an hour after the test product. The reactions (trembling, salivation, lacrymation) of the animals were observed 10, 20, 30 and 60 minutes after the tremorine injection. At the height of the activity, the 50% efficacy dose (ED50) in which 50% of the animals were protected from the trembling and peripheral parasympathomimetic reactions of salivation and lacrymation normally provoked by tremorine injection were determined.

[2] = tested on: trembling and peripherial cholinergic manifestations provoked by oxotremorine; experiment: Antioxotremorine activity: antagonism to the trembling and peripherial cholinergic manifestations (Table II); type: in vivo, mice
Protocol: The antagonism of the test products to the trembling and peripherial cholinergic manifestations provoked by oxotremorine [Cho et al, J. Biochem. Biophys. Res. Commun., Vol. 5, (196l) p. 276] was studied on mice. The product of Example 1 was administered subcutaneously in aqueous solution at doses of 50 and 100 mg/kg to groups of 10 mice and the products of Example 2 were subcutaneously administered in sesame oil solution at doses of 200 and 400 mg/kg to groups of 10 mice. Control animals received no vehicle. The mice then received a single intraperitoneal dose of 0.5 mg/kg of oxotremorine either 4 hours, 1 day, 2, 3, 4 or 7 days after the injection of the test product. The reaction of the animals as in Table I were recorded 5,10 and 15 minutes after the injection of oxotremorine and the percent of inhibition of the different reactions, at the height of the effect, after the oxotremorine injection was determined as a function of time.

[3] = tested on: antinociceptive activity of oxotremorine; experiment: Antagonism of antinociceptive activity of oxotremorine, hot plate (Table III); type: in vivo, mice
Protocol: The antinociceptive activity of oxotremorine [Leslie, J. Pharm. Pharmae., Vol. 2 (1969), p. 248-50] was determined on mice using the hot plate method of Eddy et al [J. Pharmacol. Vol. 107 (1953), p. 385] in the presence and absence of the test product presumed to be antagonistic. The product of Example 1 was administered subcutaneously in aqueous solution at doses of 50 and 100 mg/kg to groups of 10 mice and the products of Examples 2 to 5 were subcutaneously administered in sesame oil solution at doses of 200 and 400 mg/kg to groups of 10 mice. The mice then received a single intraperitoneal injection of 0.5 mg/kg of oxotremorine either 4 hours, 1 day, 2, 3, 4 or 7 days after the test product administration. For each time considerated, the mice were placed on the hot plate one half hour after the oxotremorine administration and the time for the appearance of nociceptive refluxes consistituted by simultaneous licking of the front paws was noted. The maximum time of staying on the hot plate was fixed at 45 seconds and the percentage of animals with a reaction time (RT) less than 40 seconds in spite of oxotremorine administration was determined.

[4] = Acute toxicity study (LD50); parameters: species or system mice; conditions: mouse, in vivo, aqueous solution
Protocol: The acute toxicity of the products was determined intraperitoneally or subcutaneously on mice weighing about 20 g with the LD50 dose being calculated by the method of Litchfield et al [J. Pharmacol. exp. Therap., Vol. 96 (1949), p. 99-133]. The LD50 for the product of Example 1 in aqueous solution was about 100 mg/kg intraperitoneally after 2 days of observation and about 500 mg/kg subcutaneously after 5 days of observation.

[5] = 50 mg/kg s.c. aqueous solution, after 4 h
[6] = 50 mg/kg s.c. aqueous solution, after 1 d
[7] = 100 mg/kg s.c. aqueous solution, after 4 h
[8] = 100 mg/kg s.c. aqueous solution, after 1 d

## OCCN1C2CCC1CC(=C1c3ccccc3CSc3ccccc31)C2 (racemic) [Example 1, dl N-(β-hydroxyethyl)-11-(3'-nortropylidene)-6,11-dihydrodibenzo(b,e)thiepine hydrochloride]
[1]; read-out: ED50 for parasympathomimetic reactions (salivation and lacrymation)
  ED50: 1 to 2 mg/kg
[1]; read-out: ED50 for trembling
  ED50: 1 mg/kg
[1]; antitremorine test, i.p.
  anticholinergic activity (in words): important anticholinergic activity
[2]; [5]
  % inhibition of reactions: L (lacrymation): 100%
  % inhibition of reactions: S (salivation): 100%
  % inhibition of reactions: T (trembling): 100%
[2]; [6]
  % inhibition of reactions: L (lacrymation): 0%
  % inhibition of reactions: S (salivation): 0%
  % inhibition of reactions: T (trembling): 0%
[2]; [7]
  % inhibition of reactions: L (lacrymation): 100%
  % inhibition of reactions: S (salivation): 100%
  % inhibition of reactions: T (trembling): 100%
[2]; [8]
  % inhibition of reactions: L (lacrymation): 0%
  % inhibition of reactions: S (salivation): 0%
  % inhibition of reactions: T (trembling): 0%
[3]; [5]
  % of animals with a RT less than 40 seconds: 100%
[3]; [6]
  % of animals with a RT less than 40 seconds: 10%
[3]; [7]
  % of animals with a RT less than 40 seconds: 100%
[3]; [8]
  % of animals with a RT less than 40 seconds: 20%
[3]; s.c., mice, Table III
  antagonistic activity against antinociceptive activity of oxotremorine (in words): important antagonistic activity against antinociceptive activity of oxotremorine which is manifested for several hours
[4]; ip, after 2 days of observation
  LD50 at 48 h: ~100 mg/kg
[4]; sc, after 5 days of observation
  LD50 at 120 h: ~500 mg/kg
